From article PMC9856672, “SGC-CAMKK2-1: A Chemical Probe for CAMKK2” (Cells, 2023)

Columns and labels:
[1] = molecular target: T1, ABL1(T315I)-nonphosphorylated (Homo sapiens, UniProt P00519, T315I); assay: KINOMEscan at 1 μM, ABL1(T315I)-nonphosphorylated; type: binding; details: 1000 nM, read-out: Percent Control
T1 construct: purchased Eurofins DiscoverX KINOMEscan
Text: (§1) Supplement cells-12-00287-s001.zip/File S2. KinomeScan data for the CAMKK2 probe and negative control.xlsx, sheet "SGC-CAMKK2-1N" | column: Percent Control

[2] = molecular target: T2, PIK3CA(E545A) (Homo sapiens, UniProt P42336, E545A); assay: KINOMEscan at 1 μM, PIK3CA(E545A); type: binding; details: 1000 nM, read-out: Percent Control
T2 construct: purchased Eurofins DiscoverX KINOMEscan
Text: as §1

[3] = molecular target: T3, ALK (Homo sapiens, UniProt Q9UM73); assay: KINOMEscan at 1 μM, ALK; type: binding; details: 1000 nM, read-out: Percent Control
T3 construct: purchased Eurofins DiscoverX KINOMEscan
Text: as §1

[4] = molecular target: T4, ADCK3 (Homo sapiens, UniProt Q8NI60); assay: KINOMEscan at 1 μM, ADCK3; type: binding; details: 1000 nM, read-out: Percent Control
T4 construct: purchased Eurofins DiscoverX KINOMEscan
Text: as §1

[5] = molecular target: T5, ICK (Homo sapiens, UniProt Q9UPZ9); assay: KINOMEscan at 1 μM, ICK; type: binding; details: 1000 nM, read-out: Percent Control
T5 construct: purchased Eurofins DiscoverX KINOMEscan
Text: as §1

[6] = molecular target: T6, ANKK1 (Homo sapiens, UniProt Q8NFD2); assay: KINOMEscan at 1 μM, ANKK1; type: binding; details: 1000 nM, read-out: Percent Control
T6 construct: purchased Eurofins DiscoverX KINOMEscan
Text: as §1

[7] = molecular target: T7, TRKC (Homo sapiens, UniProt Q16288); assay: KINOMEscan at 1 μM, TRKC; type: binding; details: 1000 nM, read-out: Percent Control
T7 construct: purchased Eurofins DiscoverX KINOMEscan
Text: as §1

[8] = test system: FLT3(ITD,F691L); assay: KINOMEscan at 1 μM, FLT3(ITD,F691L); type: binding, human; details: 1000 nM
Text: as §1

[9] = molecular target: T8, FGFR2 (Homo sapiens, UniProt P21802); assay: KINOMEscan at 1 μM, FGFR2; type: binding; details: 1000 nM, read-out: Percent Control
T8 construct: purchased Eurofins DiscoverX KINOMEscan
Text: as §1

[10] = molecular target: T9, BLK (Homo sapiens, UniProt P51451); assay: KINOMEscan at 1 μM, BLK; type: binding; details: 1000 nM, read-out: Percent Control
T9 construct: purchased Eurofins DiscoverX KINOMEscan
Text: as §1

[11] = molecular target: T10, IKK-beta (Homo sapiens, UniProt O14920); assay: KINOMEscan at 1 μM, IKK-beta; type: binding; details: 1000 nM, read-out: Percent Control
T10 construct: purchased Eurofins DiscoverX KINOMEscan
Text: as §1

[12] = molecular target: T11, NDR1 (Homo sapiens, UniProt Q15208); assay: KINOMEscan at 1 μM, NDR1; type: binding; details: 1000 nM, read-out: Percent Control
T11 construct: purchased Eurofins DiscoverX KINOMEscan
Text: as §1

[13] = molecular target: T12, FLT3-autoinhibited (Homo sapiens, UniProt P36888); assay: KINOMEscan at 1 μM, FLT3-autoinhibited; type: binding; details: 1000 nM, read-out: Percent Control
T12 construct: purchased Eurofins DiscoverX KINOMEscan
Text: as §1

[14] = molecular target: T13, RIOK1 (Homo sapiens, UniProt Q9BRS2); assay: KINOMEscan at 1 μM, RIOK1; type: binding; details: 1000 nM, read-out: Percent Control
T13 construct: purchased Eurofins DiscoverX KINOMEscan
Text: as §1

[15] = molecular target: T14, BRSK1 (Homo sapiens, UniProt Q8TDC3); assay: KINOMEscan at 1 μM, BRSK1; type: binding; details: 1000 nM, read-out: Percent Control
T14 construct: purchased Eurofins DiscoverX KINOMEscan
Text: as §1

[16] = molecular target: T15, FLT3(D835V) (Homo sapiens, UniProt P36888, D835V); assay: KINOMEscan at 1 μM, FLT3(D835V); type: binding; details: 1000 nM, read-out: Percent Control
T15 construct: purchased Eurofins DiscoverX KINOMEscan
Text: as §1

[17] = molecular target: T16, DMPK2 (Homo sapiens, UniProt Q6DT37); assay: KINOMEscan at 1 μM, DMPK2; type: binding; details: 1000 nM, read-out: Percent Control
T16 construct: purchased Eurofins DiscoverX KINOMEscan
Text: as §1

[18] = molecular target: T17, ERBB2 (Homo sapiens, UniProt P04626); assay: KINOMEscan binding assay at 1 μM, ERBB2; details: Compound Concentration 1000 nM; read-out: Percent Control
T17 construct: purchased Eurofins DiscoverX KINOMEscan
Text: as §1

[19] = test system: FLT3(ITD,D835V); assay: KINOMEscan binding assay at 1 μM, FLT3(ITD,D835V); parameters: species or system human; details: Compound Concentration 1000 nM
Text: as §1

[20] = molecular target: T18, MAP3K15 (Homo sapiens, UniProt Q6ZN16); assay: KINOMEscan binding assay at 1 μM, MAP3K15; details: Compound Concentration 1000 nM; read-out: Percent Control
T18 construct: purchased Eurofins DiscoverX KINOMEscan
Text: as §1

[21] = molecular target: T19, CSNK1E (Homo sapiens, UniProt P49674); assay: KINOMEscan 1 μM, CSNK1E; type: binding; details: 1000 nM; Entrez CSNK1E; read-out: Percent Control
T19 construct: purchased Eurofins DiscoverX KINOMEscan
Text: (§2) Supplement cells-12-00287-s001.zip/File S2. KinomeScan data for the CAMKK2 probe and negative control.xlsx, sheet "SGC-CAMKK2-1" | column: Percent Control

[22] = molecular target: T20, ABL1(H396P)-phosphorylated (Homo sapiens, UniProt P00519, H396P); assay: KINOMEscan 1 μM, ABL1(H396P)-phosphorylated; type: binding; details: 1000 nM; Entrez ABL1; read-out: Percent Control
T20 construct: purchased Eurofins DiscoverX KINOMEscan
Text: as §2

[23] = molecular target: T21, ERK2 (Homo sapiens, UniProt P28482); assay: KINOMEscan 1 μM, ERK2; type: binding; details: 1000 nM; Entrez MAPK1; read-out: Percent Control
T21 construct: purchased Eurofins DiscoverX KINOMEscan
Text: as §2

[24] = molecular target: T22, CAMK2B (Homo sapiens, UniProt Q13554); assay: KINOMEscan 1 μM, CAMK2B; type: binding; details: 1000 nM; Entrez CAMK2B; read-out: Percent Control
T22 construct: purchased Eurofins DiscoverX KINOMEscan
Text: as §2

[25] = molecular target: T23, PIK3C2B (Homo sapiens, UniProt O00750); assay: KINOMEscan 1 μM, PIK3C2B; type: binding; details: 1000 nM; Entrez PIK3C2B; read-out: Percent Control
T23 construct: purchased Eurofins DiscoverX KINOMEscan
Text: as §2

[26] = molecular target: T8, FGFR2; assay: KINOMEscan 1 μM, FGFR2; type: binding; details: 1000 nM; Entrez FGFR2; read-out: Percent Control
Text: as §2

[27] = molecular target: T24, PKNB(M.tuberculosis) (Mycobacterium tuberculosis, UniProt P9WI81); assay: KINOMEscan 1 μM, PKNB(M.tuberculosis); type: binding; details: 1000 nM; Entrez pknB; read-out: Percent Control
T24 construct: purchased Eurofins DiscoverX KINOMEscan
Text: as §2

[28] = molecular target: T25, ABL1(F317I)-nonphosphorylated (Homo sapiens, UniProt P00519, F317I); assay: KINOMEscan 1 μM, ABL1(F317I)-nonphosphorylated; type: binding; details: 1000 nM; Entrez ABL1; read-out: Percent Control
T25 construct: purchased Eurofins DiscoverX KINOMEscan
Text: as §2

[29] = molecular target: T26, KIT(V559D) (Homo sapiens, UniProt P10721, V559D); assay: KINOMEscan 1 μM, KIT(V559D); type: binding; details: 1000 nM; Entrez KIT; read-out: Percent Control
T26 construct: purchased Eurofins DiscoverX KINOMEscan
Text: as §2

[30] = molecular target: T27, MAPKAPK2 (Homo sapiens, UniProt P49137); assay: KINOMEscan 1 μM, MAPKAPK2; type: binding; details: 1000 nM; Entrez MAPKAPK2; read-out: Percent Control
T27 construct: purchased Eurofins DiscoverX KINOMEscan
Text: as §2

[31] = molecular target: T28, MLK2 (Homo sapiens, UniProt Q02779); assay: KINOMEscan 1 μM, MLK2; type: binding; details: 1000 nM; Entrez MAP3K10; read-out: Percent Control
T28 construct: purchased Eurofins DiscoverX KINOMEscan
Text: as §2

[32] = molecular target: T29, NEK11 (Homo sapiens, UniProt Q8NG66); assay: KINOMEscan 1 μM, NEK11; type: binding; details: 1000 nM; Entrez NEK11; read-out: Percent Control
T29 construct: purchased Eurofins DiscoverX KINOMEscan
Text: as §2

[33] = molecular target: T30, NEK3 (Homo sapiens, UniProt P51956); assay: KINOMEscan 1 μM, NEK3; type: binding; details: 1000 nM; Entrez NEK3; read-out: Percent Control
T30 construct: purchased Eurofins DiscoverX KINOMEscan
Text: as §2

[34] = molecular target: T31, ZAK (Homo sapiens, UniProt Q9NYL2); assay: DiscoverX KINOMEscan binding assay at 1 μM, ZAK; details: Compound Concentration 1000 nM, read-out: Percent Control
T31 construct: purchased Eurofins DiscoverX KINOMEscan
Text: as §2

T8 sequence (P21802 22-821): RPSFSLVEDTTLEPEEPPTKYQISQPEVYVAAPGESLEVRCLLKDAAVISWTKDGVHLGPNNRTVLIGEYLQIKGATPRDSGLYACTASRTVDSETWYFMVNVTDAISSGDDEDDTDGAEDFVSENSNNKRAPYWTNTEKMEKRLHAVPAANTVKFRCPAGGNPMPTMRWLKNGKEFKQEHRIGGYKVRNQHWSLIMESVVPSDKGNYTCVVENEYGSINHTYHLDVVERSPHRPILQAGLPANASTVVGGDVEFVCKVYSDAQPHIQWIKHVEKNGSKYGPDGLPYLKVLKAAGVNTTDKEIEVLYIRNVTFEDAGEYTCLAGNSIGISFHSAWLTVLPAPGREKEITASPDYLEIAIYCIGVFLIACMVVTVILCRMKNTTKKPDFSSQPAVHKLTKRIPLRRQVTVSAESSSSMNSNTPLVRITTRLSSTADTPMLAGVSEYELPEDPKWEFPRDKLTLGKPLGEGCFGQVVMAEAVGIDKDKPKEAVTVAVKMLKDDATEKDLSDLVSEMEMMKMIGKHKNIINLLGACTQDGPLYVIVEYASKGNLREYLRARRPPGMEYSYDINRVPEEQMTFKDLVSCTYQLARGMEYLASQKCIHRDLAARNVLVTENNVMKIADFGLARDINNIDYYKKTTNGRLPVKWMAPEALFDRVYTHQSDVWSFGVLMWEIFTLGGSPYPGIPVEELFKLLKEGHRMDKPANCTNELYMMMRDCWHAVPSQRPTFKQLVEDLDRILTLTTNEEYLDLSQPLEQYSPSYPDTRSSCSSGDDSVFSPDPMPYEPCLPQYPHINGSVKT
T3 sequence (Q9UM73 19-1620): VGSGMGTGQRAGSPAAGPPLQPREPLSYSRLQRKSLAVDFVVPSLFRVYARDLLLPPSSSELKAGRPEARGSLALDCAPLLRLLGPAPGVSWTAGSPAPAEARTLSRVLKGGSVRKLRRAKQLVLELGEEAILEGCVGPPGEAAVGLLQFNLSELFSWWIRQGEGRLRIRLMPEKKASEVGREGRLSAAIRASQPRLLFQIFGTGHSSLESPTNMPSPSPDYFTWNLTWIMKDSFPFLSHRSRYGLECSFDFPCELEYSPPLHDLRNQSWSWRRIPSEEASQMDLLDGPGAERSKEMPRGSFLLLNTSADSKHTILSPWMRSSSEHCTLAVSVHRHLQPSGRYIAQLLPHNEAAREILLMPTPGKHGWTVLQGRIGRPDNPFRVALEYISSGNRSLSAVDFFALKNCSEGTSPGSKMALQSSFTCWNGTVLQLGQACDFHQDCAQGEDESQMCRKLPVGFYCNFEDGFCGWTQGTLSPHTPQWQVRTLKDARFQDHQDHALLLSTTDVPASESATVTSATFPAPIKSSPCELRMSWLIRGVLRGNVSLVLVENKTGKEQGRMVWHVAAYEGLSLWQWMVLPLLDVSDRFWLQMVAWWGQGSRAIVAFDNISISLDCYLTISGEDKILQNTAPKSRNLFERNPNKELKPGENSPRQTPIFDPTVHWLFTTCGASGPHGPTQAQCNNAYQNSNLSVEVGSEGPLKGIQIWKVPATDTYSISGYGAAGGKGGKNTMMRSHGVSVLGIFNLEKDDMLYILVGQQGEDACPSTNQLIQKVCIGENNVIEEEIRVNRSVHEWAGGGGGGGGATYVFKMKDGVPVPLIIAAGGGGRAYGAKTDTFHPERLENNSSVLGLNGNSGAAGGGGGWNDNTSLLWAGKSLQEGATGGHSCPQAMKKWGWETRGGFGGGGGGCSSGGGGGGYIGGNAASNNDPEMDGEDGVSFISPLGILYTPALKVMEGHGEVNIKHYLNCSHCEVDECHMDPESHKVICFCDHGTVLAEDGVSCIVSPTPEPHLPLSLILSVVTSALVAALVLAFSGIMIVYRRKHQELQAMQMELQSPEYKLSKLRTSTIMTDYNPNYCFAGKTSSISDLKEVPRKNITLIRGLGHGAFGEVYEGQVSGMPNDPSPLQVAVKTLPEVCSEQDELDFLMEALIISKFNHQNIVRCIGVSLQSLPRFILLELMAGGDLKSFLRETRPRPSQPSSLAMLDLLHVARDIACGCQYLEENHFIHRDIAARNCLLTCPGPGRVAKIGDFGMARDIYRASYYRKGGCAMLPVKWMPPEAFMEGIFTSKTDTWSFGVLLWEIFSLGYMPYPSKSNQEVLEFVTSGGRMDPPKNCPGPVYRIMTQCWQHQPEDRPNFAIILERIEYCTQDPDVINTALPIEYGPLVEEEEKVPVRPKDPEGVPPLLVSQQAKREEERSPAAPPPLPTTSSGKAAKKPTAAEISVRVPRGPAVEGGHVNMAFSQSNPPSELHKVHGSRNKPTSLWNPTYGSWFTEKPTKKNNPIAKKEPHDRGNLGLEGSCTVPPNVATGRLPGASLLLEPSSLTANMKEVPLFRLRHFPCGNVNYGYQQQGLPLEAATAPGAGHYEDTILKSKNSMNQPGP
T4 sequence (Q8NI60 163-647): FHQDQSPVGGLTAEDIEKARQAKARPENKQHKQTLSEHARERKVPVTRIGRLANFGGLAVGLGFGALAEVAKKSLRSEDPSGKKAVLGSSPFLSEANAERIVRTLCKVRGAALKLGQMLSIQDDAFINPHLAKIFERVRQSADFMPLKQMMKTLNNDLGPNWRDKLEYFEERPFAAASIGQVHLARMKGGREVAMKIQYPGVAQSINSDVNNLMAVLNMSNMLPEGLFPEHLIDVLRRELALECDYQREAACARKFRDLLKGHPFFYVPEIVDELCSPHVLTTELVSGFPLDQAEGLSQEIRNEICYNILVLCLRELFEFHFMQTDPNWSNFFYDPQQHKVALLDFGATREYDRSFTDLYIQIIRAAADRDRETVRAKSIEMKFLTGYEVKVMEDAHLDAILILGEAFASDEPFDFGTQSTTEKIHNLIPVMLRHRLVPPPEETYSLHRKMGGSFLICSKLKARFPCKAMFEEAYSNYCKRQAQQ
T13 sequence (Q9BRS2 whole entry): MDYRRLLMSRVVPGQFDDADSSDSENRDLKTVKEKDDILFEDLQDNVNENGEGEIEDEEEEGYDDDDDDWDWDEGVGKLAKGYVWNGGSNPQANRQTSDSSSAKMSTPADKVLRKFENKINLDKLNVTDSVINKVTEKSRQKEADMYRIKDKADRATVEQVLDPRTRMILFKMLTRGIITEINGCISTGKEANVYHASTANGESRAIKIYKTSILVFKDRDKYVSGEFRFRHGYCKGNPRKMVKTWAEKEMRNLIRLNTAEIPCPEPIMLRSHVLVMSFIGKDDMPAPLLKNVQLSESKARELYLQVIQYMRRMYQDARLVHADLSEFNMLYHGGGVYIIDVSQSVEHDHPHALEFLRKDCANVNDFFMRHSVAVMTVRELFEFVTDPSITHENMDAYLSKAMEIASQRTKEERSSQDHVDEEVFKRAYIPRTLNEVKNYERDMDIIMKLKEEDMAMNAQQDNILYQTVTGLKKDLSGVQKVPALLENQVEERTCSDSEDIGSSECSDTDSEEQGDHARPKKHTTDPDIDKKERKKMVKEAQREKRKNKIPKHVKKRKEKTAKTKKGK
T26 sequence (P10721 26-976 V559D): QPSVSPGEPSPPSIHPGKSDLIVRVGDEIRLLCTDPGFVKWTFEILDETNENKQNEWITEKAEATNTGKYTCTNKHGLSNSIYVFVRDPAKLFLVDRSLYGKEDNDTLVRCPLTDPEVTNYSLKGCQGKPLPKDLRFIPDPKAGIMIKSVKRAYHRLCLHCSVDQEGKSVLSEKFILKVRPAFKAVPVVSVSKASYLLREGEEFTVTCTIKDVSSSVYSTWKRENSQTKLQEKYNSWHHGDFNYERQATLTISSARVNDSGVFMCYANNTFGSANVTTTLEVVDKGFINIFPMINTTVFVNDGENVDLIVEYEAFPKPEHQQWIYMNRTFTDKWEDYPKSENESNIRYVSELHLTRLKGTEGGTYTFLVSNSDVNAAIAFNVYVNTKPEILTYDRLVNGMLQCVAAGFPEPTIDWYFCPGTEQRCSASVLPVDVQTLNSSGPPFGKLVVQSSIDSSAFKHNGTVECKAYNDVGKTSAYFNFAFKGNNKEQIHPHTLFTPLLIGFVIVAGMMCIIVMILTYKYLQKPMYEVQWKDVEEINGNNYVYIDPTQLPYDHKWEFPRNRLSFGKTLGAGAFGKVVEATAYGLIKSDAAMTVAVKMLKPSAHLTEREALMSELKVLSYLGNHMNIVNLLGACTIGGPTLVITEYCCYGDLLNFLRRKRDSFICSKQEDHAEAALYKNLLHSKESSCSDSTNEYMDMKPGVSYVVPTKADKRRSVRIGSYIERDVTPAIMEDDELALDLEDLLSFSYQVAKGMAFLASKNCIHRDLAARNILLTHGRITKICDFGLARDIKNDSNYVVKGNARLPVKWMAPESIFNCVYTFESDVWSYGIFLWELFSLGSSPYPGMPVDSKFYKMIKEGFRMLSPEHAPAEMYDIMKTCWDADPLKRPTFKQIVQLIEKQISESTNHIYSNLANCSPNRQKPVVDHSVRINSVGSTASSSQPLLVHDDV
T29 sequence (Q8NG66 whole entry): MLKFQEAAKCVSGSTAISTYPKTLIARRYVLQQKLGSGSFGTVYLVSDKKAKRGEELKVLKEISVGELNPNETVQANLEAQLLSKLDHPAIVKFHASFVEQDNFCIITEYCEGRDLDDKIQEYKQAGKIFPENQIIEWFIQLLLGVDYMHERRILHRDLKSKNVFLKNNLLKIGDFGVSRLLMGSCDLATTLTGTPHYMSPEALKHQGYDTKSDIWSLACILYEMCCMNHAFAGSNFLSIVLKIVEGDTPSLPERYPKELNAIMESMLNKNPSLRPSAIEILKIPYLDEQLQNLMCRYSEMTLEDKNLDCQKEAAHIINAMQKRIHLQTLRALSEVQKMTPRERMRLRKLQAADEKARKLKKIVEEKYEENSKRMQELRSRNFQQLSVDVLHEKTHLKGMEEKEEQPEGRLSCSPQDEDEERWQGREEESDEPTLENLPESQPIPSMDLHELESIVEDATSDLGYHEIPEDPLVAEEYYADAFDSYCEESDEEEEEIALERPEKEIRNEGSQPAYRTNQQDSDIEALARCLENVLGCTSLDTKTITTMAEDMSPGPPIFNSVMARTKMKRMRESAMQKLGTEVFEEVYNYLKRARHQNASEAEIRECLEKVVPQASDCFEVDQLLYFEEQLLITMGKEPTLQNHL

SMILES: O=C(O)c1ccc(-c2coc3ncc(-c4ccccc4)cc23)cc1Cl [SGC-CAMKK2-1N (UNC-YL-83)]
- remaining binding at 1 µM [1]: 45%
- remaining binding at 1 µM [2]: 59%
- remaining binding at 1 µM [3]: 66%
- remaining binding at 1 µM [4]: 68%
- remaining binding at 1 µM [5]: 71%
- remaining binding at 1 µM [6]: 78%
- remaining binding at 1 µM [7]: 78%
- Percent Control [8]: 81
- remaining binding at 1 µM [9]: 84%
- remaining binding at 1 µM [10]: 87%
- remaining binding at 1 µM [11]: 87%
- remaining binding at 1 µM [12]: 87%
- remaining binding at 1 µM [13]: 91%
- remaining binding at 1 µM [14]: 91%
- remaining binding at 1 µM [15]: 92%
- remaining binding at 1 µM [16]: 97%
- remaining binding at 1 µM [17]: 100%
- remaining binding at 1 µM [18]: 100%
- Percent Control [19]: 100%
- remaining binding at 1 µM [20]: 100%

SMILES: Cc1cccc(-c2cnc3occ(-c4ccc(C(=O)O)c(C5CCCC5)c4)c3c2)c1 [SGC-CAMKK2-1 (YL-36)]
- remaining binding at 1 µM [21]: 75%
- remaining binding at 1 µM [22]: 77%
- remaining binding at 1 µM [23]: 81%
- remaining binding at 1 µM [24]: 86%
- remaining binding at 1 µM [25]: 87%
- remaining binding at 1 µM [26]: 88%
- remaining binding at 1 µM [27]: 90%
- remaining binding at 1 µM [28]: 100%
- remaining binding at 1 µM [29]: 100%
- remaining binding at 1 µM [30]: 100%
- remaining binding at 1 µM [31]: 100%
- remaining binding at 1 µM [32]: 100%
- remaining binding at 1 µM [33]: 100%
- remaining binding at 1 µM [34]: 100%
